# According to ChEMBL document CHEMBL1201862, “PubChem BioAssay data set” (2004):
#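 Growth conditions: 96-well plates. Treatment: test compound, 48 hours, 5 concentrations. Analysis: linear interpolation between bracketing concentrations; unreached endpoints set to highest concentration. Abbreviation: GI50, concentration required for 50% inhibition of growth.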 The source made the active and inactive calls. No stated cut-off is given here; in the data, active = GI50 up to about 1.1 µM and inactive = higher.
# Tests used:
# Experiment in all cases: NCI anticancer screen, dose series, 48 h
# 786-0 = tested on: 786-0
# A498 = tested on: A498
# A549 = tested on: A549
# ACHN = tested on: ACHN
# BT-549 = tested on: BT-549
# CAKI-1 = tested on: CAKI-1
# CCRF-CEM = tested on: CCRF-CEM
# COLO 205 = tested on: COLO 205
# DU-145 = tested on: DU-145
# EKVX = tested on: EKVX
# HCC 2998 = tested on: HCC 2998
# HCT-116 = tested on: HCT-116
# HCT-15 = tested on: HCT-15
# HOP-62 = tested on: HOP-62
# HOP-92 = tested on: HOP-92
# HT-29 = tested on: HT-29
# IGROV-1 = tested on: IGROV-1
# K562 = tested on: K562
# KM12 = tested on: KM12
# LOX IMVI = tested on: LOX IMVI
# M14 = tested on: M14
# MCF7 = tested on: MCF7
# MDA-MB-231 = tested on: MDA-MB-231
# MDA-MB-435 = tested on: MDA-MB-435
# MDA-N = tested on: MDA-N
# MOLT-4 = tested on: MOLT-4
# Malme-3M = tested on: Malme-3M
# NCI-H226 = tested on: NCI-H226
# NCI-H23 = tested on: NCI-H23
# NCI-H460 = tested on: NCI-H460
# NCI-H522 = tested on: NCI-H522
# NCI/ADR-RES = tested on: NCI/ADR-RES
# OVCAR-3 = tested on: OVCAR-3
# OVCAR-4 = tested on: OVCAR-4
# OVCAR-5 = tested on: OVCAR-5
# OVCAR-8 = tested on: OVCAR-8
# PC-3 = tested on: PC-3
# RPMI-8226 = tested on: RPMI-8226
# SF-268 = tested on: SF-268
# SF-295 = tested on: SF-295
# SF-539 = tested on: SF-539
# SK-MEL-28 = tested on: SK-MEL-28
# SK-MEL-2 = tested on: SK-MEL-2
# SK-MEL-5 = tested on: SK-MEL-5
# SK-OV-3 = tested on: SK-OV-3
# SN12C = tested on: SN12C
# SNB-19 = tested on: SNB-19
# SNB-75 = tested on: SNB-75
# SR = tested on: SR
# SW-620 = tested on: SW-620
# TK-10 = tested on: TK-10
# U-251 = tested on: U-251
# UACC-257 = tested on: UACC-257
# UACC-62 = tested on: UACC-62
# UO-31 = tested on: UO-31
# HL-60 = tested on: HL-60
# Hs-578T = tested on: Hs-578T
# RXF 393 = tested on: RXF 393
# T47D = tested on: T47D
smiles,measurement,setting,value
O=S(=O)(F)Cc1ccccc1 [PHENYLMETHYLSULFONYLFLUORIDE],GI50,786-0,> 100 µM (inactive)
same,GI50,A498,> 100 µM (inactive)
same,GI50,A549,> 100 µM (inactive)
same,GI50,ACHN,> 100 µM (inactive)
same,GI50,BT-549,> 100 µM (inactive)
same,GI50,CAKI-1,> 100 µM (inactive)
same,GI50,CCRF-CEM,> 100 µM (inactive)
same,GI50,COLO 205,> 100 µM (inactive)
same,GI50,DU-145,> 100 µM (inactive)
same,GI50,EKVX,> 100 µM (inactive)
same,GI50,HCC 2998,> 100 µM (inactive)
same,GI50,HCT-116,> 100 µM (inactive)
same,GI50,HCT-15,> 100 µM
same,GI50,HOP-62,> 100 µM (inactive)
same,GI50,HOP-92,> 100 µM (inactive)
same,GI50,HT-29,> 100 µM (inactive)
same,GI50,IGROV-1,> 100 µM (inactive)
same,GI50,K562,> 100 µM (inactive)
same,GI50,KM12,> 100 µM (inactive)
same,GI50,LOX IMVI,> 100 µM (inactive)
same,GI50,M14,> 100 µM (inactive)
same,GI50,MCF7,> 100 µM (inactive)
same,GI50,MDA-MB-231,> 100 µM (inactive)
same,GI50,MDA-MB-435,> 100 µM (inactive)
same,GI50,MDA-N,> 100 µM (inactive)
same,GI50,MOLT-4,> 100 µM (inactive)
same,GI50,Malme-3M,0.486 µM (active)
same,GI50,NCI-H226,> 100 µM (inactive)
same,GI50,NCI-H23,> 100 µM (inactive)
same,GI50,NCI-H460,> 100 µM (inactive)
same,GI50,NCI-H522,39.1 µM (inactive)
same,GI50,NCI/ADR-RES,> 100 µM (inactive)
same,GI50,OVCAR-3,> 100 µM (inactive)
same,GI50,OVCAR-4,> 100 µM (inactive)
same,GI50,OVCAR-5,> 100 µM (inactive)
same,GI50,OVCAR-8,> 100 µM (inactive)
same,GI50,PC-3,> 100 µM (inactive)
same,GI50,RPMI-8226,> 100 µM (inactive)
same,GI50,SF-268,> 100 µM (inactive)
same,GI50,SF-295,> 100 µM (inactive)
same,GI50,SF-539,> 100 µM (inactive)
same,GI50,SK-MEL-28,> 100 µM (inactive)
same,GI50,SK-MEL-2,> 100 µM (inactive)
same,GI50,SK-MEL-5,> 100 µM (inactive)
same,GI50,SK-OV-3,> 100 µM (inactive)
same,GI50,SN12C,> 100 µM (inactive)
same,GI50,SNB-19,> 100 µM (inactive)
same,GI50,SNB-75,> 100 µM (inactive)
same,GI50,SR,> 100 µM (inactive)
same,GI50,SW-620,> 100 µM (inactive)
same,GI50,TK-10,> 100 µM (inactive)
same,GI50,U-251,> 100 µM (inactive)
same,GI50,UACC-257,> 100 µM (inactive)
same,GI50,UACC-62,> 100 µM (inactive)
same,GI50,UO-31,> 100 µM (inactive)
CCC(=O)C1(N2CCOCC2)CCN(CCCC(=O)c2ccc(F)cc2)CC1,GI50,786-0,> 100 µM (inactive)
same,GI50,A498,> 100 µM (inactive)
same,GI50,A549,> 100 µM (inactive)
same,GI50,ACHN,> 100 µM (inactive)
same,GI50,CAKI-1,> 100 µM (inactive)
same,GI50,CCRF-CEM,> 100 µM (inactive)
same,GI50,COLO 205,> 100 µM (inactive)
same,GI50,DU-145,> 100 µM (inactive)
same,GI50,EKVX,> 100 µM (inactive)
same,GI50,HCC 2998,> 100 µM (inactive)
same,GI50,HCT-116,> 100 µM (inactive)
same,GI50,HCT-15,> 100 µM
same,GI50,HL-60,> 100 µM (inactive)
same,GI50,HOP-62,> 100 µM (inactive)
same,GI50,HT-29,39.2 µM (inactive)
same,GI50,Hs-578T,> 100 µM (inactive)
same,GI50,IGROV-1,> 100 µM (inactive)
same,GI50,K562,> 100 µM (inactive)
same,GI50,KM12,> 100 µM (inactive)
same,GI50,LOX IMVI,> 100 µM (inactive)
same,GI50,M14,> 100 µM (inactive)
same,GI50,MCF7,> 100 µM (inactive)
same,GI50,MDA-MB-231,> 100 µM (inactive)
same,GI50,MDA-MB-435,> 100 µM (inactive)
same,GI50,MDA-N,> 100 µM (inactive)
same,GI50,MOLT-4,> 100 µM (inactive)
same,GI50,Malme-3M,> 100 µM (inactive)
same,GI50,NCI-H226,> 100 µM (inactive)
same,GI50,NCI-H23,> 100 µM (inactive)
same,GI50,NCI-H460,> 100 µM (inactive)
same,GI50,NCI-H522,> 100 µM (inactive)
same,GI50,NCI/ADR-RES,> 100 µM (inactive)
same,GI50,OVCAR-3,> 100 µM (inactive)
same,GI50,OVCAR-4,> 100 µM (inactive)
same,GI50,OVCAR-5,> 100 µM (inactive)
same,GI50,OVCAR-8,> 100 µM (inactive)
same,GI50,PC-3,> 100 µM (inactive)
same,GI50,RPMI-8226,> 100 µM (inactive)
same,GI50,RXF 393,> 100 µM (inactive)
same,GI50,SF-268,> 100 µM (inactive)
same,GI50,SF-295,> 100 µM (inactive)
same,GI50,SF-539,> 100 µM (inactive)
same,GI50,SK-MEL-28,> 100 µM (inactive)
same,GI50,SK-MEL-2,> 100 µM (inactive)
same,GI50,SK-MEL-5,> 100 µM (inactive)
same,GI50,SK-OV-3,> 100 µM (inactive)
same,GI50,SN12C,> 100 µM (inactive)
same,GI50,SNB-19,> 100 µM (inactive)
same,GI50,SNB-75,> 100 µM (inactive)
same,GI50,SW-620,> 100 µM (inactive)
same,GI50,T47D,> 100 µM (inactive)
same,GI50,TK-10,> 100 µM (inactive)
same,GI50,U-251,> 100 µM (inactive)
same,GI50,UACC-62,> 100 µM (inactive)
same,GI50,UO-31,> 100 µM (inactive)
